From patent publication US10144742B2 (Millennium Pharmaceuticals, Inc., priority 2014, dated 2018)
Where two headings read alike, the source gives them in different places.

Columns and labels:
PC3 cells = experiment: PC3 growth inhibition (Cell-titer glo, 72 hours); format: cell-based; details: Homo sapiens, read-out: Percent Inhibition (PC3 growth inhibition); for inhibition at 1.667 µM: compound concentration 1.667 μM
Procedure, shortened: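 PC3 cells in RPMI1640 seeded overnight at 37 °C, 5% CO2, then exposed to compound diluted in AIM serum-free medium for 72 h. Viability by CellTiter-Glo luminescence vs DMSO controls; single-concentration % remaining viability (1 μM or 1.667 μM), or GI50/LD50 from curves.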

hNAMPT protein = hNAMPT protein (Homo sapiens (Human), UniProt P43490); experiment: NAMPT enzyme assay (TR-FRET/HTRF, BodiPY ligand, anti 6His-Tb); format: binding; details: for IC50: NAMPT IC50 range class, read-out: IC50; for inhibition at 1 µM: read-out: Percent Inhibition
Procedure, shortened: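 TR-FRET binding assay in which His-tagged human NAMPT with anti-6His-Tb is displaced by compound from a BodiPY ligand, incubated 1 h at rt in the dark. Excitation was at 320 nm, with the 520/486 nm emission ratio read. IC50 was fitted from inhibition relative to DMSO controls.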

[1] = PC-3, compound concentration 1 μM, PC3 cells, 72 hours, Cell-titer glo
[2] = PC-3, PC3 cells, 72 hours, Cell-titer glo

Chain of hNAMPT protein (P43490 whole entry): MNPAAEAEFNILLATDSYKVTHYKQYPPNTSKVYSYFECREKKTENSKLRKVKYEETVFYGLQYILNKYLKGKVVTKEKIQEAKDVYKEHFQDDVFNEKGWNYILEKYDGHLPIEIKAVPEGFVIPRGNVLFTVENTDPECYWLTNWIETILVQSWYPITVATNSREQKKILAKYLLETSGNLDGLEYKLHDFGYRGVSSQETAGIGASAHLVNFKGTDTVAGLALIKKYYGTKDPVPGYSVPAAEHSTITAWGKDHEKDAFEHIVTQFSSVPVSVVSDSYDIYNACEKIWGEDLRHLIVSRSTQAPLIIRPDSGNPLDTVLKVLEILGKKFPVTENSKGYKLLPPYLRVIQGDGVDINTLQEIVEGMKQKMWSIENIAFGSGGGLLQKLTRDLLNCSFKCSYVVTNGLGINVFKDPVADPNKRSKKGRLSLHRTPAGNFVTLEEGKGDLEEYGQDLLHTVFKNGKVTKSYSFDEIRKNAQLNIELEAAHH

Structure (SMILES) | inhibition at 1 µM (PC3 cells; [1]) | IC50 (hNAMPT protein) | inhibition at 1 µM (hNAMPT protein; compound concentration 1 μM) | inhibition at 1 µM (PC3 cells; PC-3, 72 h) | inhibition at 1 µM (hNAMPT protein) | inhibition at 1.667 µM (PC3 cells; [2])
COc1cccc(-c2nc3ccc(C(=O)NCCc4ncc[nH]4)cc3nc2-c2cccc(OC)c2)c1 [Compound I-134, N-[2-(1H-imidazol-2-yl)ethyl]-2,3-bis(3-methoxyphenyl)quinoxaline-6-carboxamide] | -3% | 500 to 1000 nM | 65% |  |  | 
CC(=O)Nc1ccccc1-c1nc2cc(C(=O)NCCCn3ccnc3)ccc2nc1-c1ccccc1 [Compound I-135, 3-(2-acetamidophenyl)-N-[3-(1H-imidazol-1-yl)propyl]-2-phenylquinoxaline-6-carboxamide] | 101% | 2000 to 10000 nM | 16% |  |  | 
O=C(NCCCn1ccnc1)c1ccc2nc(N3CCC(N4CCCC4=O)CC3)c(-c3ccccc3)nc2c1 [Compound I-136, N-[3-(1H-imidazol-1-yl)propyl]-2-[4-(2-oxopyrrolidin-1-yl)piperidin-1-yl]-3-phenylquinoxaline-6-carboxamide] | -7% | 100 to 500 nM | 83% |  |  | 
O=C(NCCCn1ccnc1)c1ccc2nc(N3CCC3)c(-c3ccccc3)nc2c1 [Compound I-137, 2-(Azetidin-1-yl)-N-[3-(1H-imidazol-1-yl)propyl]-3-phenylquinoxaline-6-carboxamide] |  | 2000 to 10000 nM |  | 6% | 18% | 
O=C(NCCCc1cncnc1)c1ccc2nc(N3CCCCC3)c(-c3ccc(F)cc3)nc2c1 [Compound I-138, 3-(4-fluorophenyl)-2-(piperidin-1-yl)-N-[3-(pyrimidin-5-yl)propyl]quinoxaline-6-carboxamide] |  | 100 to 500 nM | 86% |  |  | > 99%
O=C(NCCn1nnnc1S)c1ccc2nc(-c3ccc(F)cc3)c(-c3ccc(F)cc3)nc2c1 [Compound I-139, 2,3-bis(4-fluorophenyl)-N-[2-(5-sulfanyl-1H-tetrazol-1-yl)ethyl]quinoxaline-6-carboxamide] | 99% | 1000 to 2000 nM | 41% |  |  | 
O=C(NCCCn1ccnc1)c1ccc2nc(-c3ccc4c(c3)CCO4)c(-c3ccccc3)nc2c1 [Compound I-140, 2-(2,3-dihydro-1-benzofuran-5-yl)-N-[3-(1H-imidazol-1-yl)propyl]-3-phenylquinoxaline-6-carboxamide] | -8% | 100 to 500 nM | 79% |  |  | 
O=C(NCCCn1ccnc1)c1ccc2nc(C3=CCOCC3)c(-c3ccccc3)nc2c1 [Compound I-141, 2-(3,6-dihydro-2H-pyran-4-yl)-N-[3-(1H-imidazol-1-yl)propyl]-3-phenylquinoxaline-6-carboxamide] | -8% | 100 to 500 nM | 74% |  |  | 
N#Cc1nc2ccc(C(=O)NCCCn3ccnc3)cc2nc1-c1ccccc1 [Compound I-142, 2-Cyano-N-[3-(1H-imidazol-1-yl)propyl]-3-phenylquinoxaline-6-carboxamide] | 95% | 2000 to 10000 nM |  |  | 24% | 
Cn1cnc2cc(-c3nc4cc(C(=O)NCCCn5ccnc5)ccc4nc3-c3ccccc3)ccc21 [Compound I-143, N-[3-(1H-imidazol-1-yl)propyl]-3-(1-methyl-1H-benzimidazol-5-yl)-2-phenylquinoxaline-6-carboxamide] | 103% | 2000 to 10000 nM | 3% |  |  | 
O=C(NCCCn1ccnc1)c1ccc2nc(-c3ccccc3)c(N3CCOCC3)nc2c1 [Compound I-144, N-[3-(1H-imidazol-1-yl)propyl]-3-(morpholin-4-yl)-2-phenylquinoxaline-6-carboxamide] | 2% | 1000 to 2000 nM | 43% |  |  | 
NS(=O)(=O)c1ccc(-c2nc3ccc(C(=O)NCCCn4ccnc4)cc3nc2-c2ccccc2)cc1 [Compound I-145, N-[3-(1H-imidazol-1-yl)propyl]-3-phenyl-2-(4-sulfamoylphenyl)quinoxaline-6-carboxamide] | -7% | 100 to 500 nM | 76% |  |  | 
O=C(NCCCn1ccnc1)c1ccc2nc(N3CCN4CCCC4C3)c(-c3ccccc3)nc2c1 (stereo not drawn) [Compound I-146, 2-(hexahydropyrrolo[1,2-a]pyrazin-2(1H)-yl)-N-[3-(1H-imidazol-1-yl)propyl]-3-phenylquinoxaline-6-carboxamide] | -7% | 100 to 500 nM | 76% |  |  | 
O=C(NCc1ccc2nccn2c1)c1ccc2nc(N3CCOCC3)c(-c3ccc(F)cc3)nc2c1 [Compound I-147, 3-(4-fluorophenyl)-N-(imidazo[1,2-a]pyridin-6-ylmethyl)-2-(morpholin-4-yl)quinoxaline-6-carboxamide] |  | < 100 nM | 95% |  |  | 2%
CC(C)(C)OC(=O)NCc1ccc(-c2nc3ccc(C(=O)NCCCn4ccnc4)cc3nc2-c2ccccc2)cc1 [Compound I-148, tert-Butyl [4-(6-{[3-(1H-imidazol-1-yl)propyl]carbamoyl}-3-phenylquinoxalin-2-yl)benzyl]carbamate] | 1% | 100 to 500 nM |  |  | 85% | 
O=C(NCCCn1ccnc1)c1ccc2nc(-c3ccc4[nH]ccc4c3)c(-c3ccccc3)nc2c1 [Compound I-149, N-[3-(1H-imidazol-1-yl)propyl]-2-(1H-indol-5-yl)-3-phenylquinoxaline-6-carboxamide] | -8% | 100 to 500 nM | 86% |  |  | 
CS(=O)(=O)C1CCN(c2nc3ccc(C(=O)NCCCn4ccnc4)cc3nc2-c2ccccc2)C1 (stereo not drawn) [Compound I-150, N-[3-(1H-imidazo-1-yl)propyl]-2-[3-(methylsulfonyl)pyrrolidin-1-yl]-3-phenylquinoxaline-6-carboxamide] | -7% | 100 to 500 nM | 75% |  |  | 
Cn1ccnc1CCNC(=O)c1ccc2nc(-c3ccc(F)cc3)c(-c3ccc(F)cc3)nc2c1 [Compound I-151, 2,3-Bis(4-fluorophenyl)-N-[2-(1-methyl-1H-imidazol-2-yl)ethyl]quinoxaline-6-carboxamide] | 96% | 100 to 500 nM | 79% |  |  | 
CC(C)(C)OC(=O)NCc1cccc(-c2nc3ccc(C(=O)NCCCn4ccnc4)cc3nc2-c2ccccc2)c1 [Compound I-152, tert-butyl[3-(6-{[3-(1H-imidazol-1-yl)propyl]carbamoyl}-3-phenylquinoxalin-2-yl)benzyl]carbamate] | 3% | 500 to 1000 nM | 62% |  |  | 
O=C(NCCCn1ccnc1)c1ccc2nc(-c3ccccc3)c(N3CCC(O)C3)nc2c1 (stereo not drawn) [Compound I-153, 3-(3-hydroxypyrrolidin-1-yl)-N-[3-(1H-imidazol-1-yl)propyl]-2-phenylquinoxaline-6-carboxamide] | 14% | 2000 to 10000 nM | 22% |  |  | 
O=C(NCCCc1ncc[nH]1)c1ccc2nc(N3CC4(COC4)C3)c(-c3ccc(F)cc3)nc2c1 [Compound I-154, 3-(4-fluorophenyl)-N-[3-(1H-imidazol-2-yl)propyl]-2-(2-oxa-6-azaspiro[3.3]hept-6-yl)quinoxaline-6-carboxamide] |  | < 100 nM | 98% |  |  | 2%
